Entries after “also recorded” stand apart in the source; their conditions may differ. Like-named read-outs stand apart in the source and are kept apart here.
How the values were obtained:
BGT1 = biological target: T1, BGT1 (Homo sapiens, UniProt P48065); experiment: FLIPR membrane potential (FMP) assay, CHO cells stably expressing BGT1; assay type: cell-based; settings: for Inhibitor activity: in the presence of GABA EC50 concentration ([…] µM); for Substrate activity (translocation by BGT1): tested as substrates, without GABA; for Kb: Gaddum-Schild analysis
T1 construct: expressed in transfected cells
T1 sequence (P48065 1-614): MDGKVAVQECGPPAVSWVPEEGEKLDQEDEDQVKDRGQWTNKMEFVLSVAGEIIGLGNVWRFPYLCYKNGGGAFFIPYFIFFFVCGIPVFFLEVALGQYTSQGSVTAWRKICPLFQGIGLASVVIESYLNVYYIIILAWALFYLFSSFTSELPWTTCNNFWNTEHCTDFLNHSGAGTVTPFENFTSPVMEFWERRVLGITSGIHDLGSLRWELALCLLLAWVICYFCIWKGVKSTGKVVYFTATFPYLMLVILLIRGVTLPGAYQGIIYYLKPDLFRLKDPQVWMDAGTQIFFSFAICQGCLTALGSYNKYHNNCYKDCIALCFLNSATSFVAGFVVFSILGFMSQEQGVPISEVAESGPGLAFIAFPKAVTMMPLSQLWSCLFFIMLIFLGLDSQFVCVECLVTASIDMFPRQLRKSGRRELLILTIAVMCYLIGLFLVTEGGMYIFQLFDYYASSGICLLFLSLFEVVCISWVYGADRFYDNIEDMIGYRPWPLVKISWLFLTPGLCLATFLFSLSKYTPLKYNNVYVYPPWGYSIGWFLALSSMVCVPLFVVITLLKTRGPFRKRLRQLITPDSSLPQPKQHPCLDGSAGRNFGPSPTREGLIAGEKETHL

[1] = biological target: T2, human α1β2γ2 GABAA receptors (Homo sapiens, UniProt P14867+P47870); experiment: FMP assay at GABAA receptors in HEK293 cells; assay type: cell-based; settings: for Activity at α1β2γ2 GABAA receptors: 2 tested up to 100 µM
T2 construct: expressed in transfected cells
T2 sequence (P14867 28-456): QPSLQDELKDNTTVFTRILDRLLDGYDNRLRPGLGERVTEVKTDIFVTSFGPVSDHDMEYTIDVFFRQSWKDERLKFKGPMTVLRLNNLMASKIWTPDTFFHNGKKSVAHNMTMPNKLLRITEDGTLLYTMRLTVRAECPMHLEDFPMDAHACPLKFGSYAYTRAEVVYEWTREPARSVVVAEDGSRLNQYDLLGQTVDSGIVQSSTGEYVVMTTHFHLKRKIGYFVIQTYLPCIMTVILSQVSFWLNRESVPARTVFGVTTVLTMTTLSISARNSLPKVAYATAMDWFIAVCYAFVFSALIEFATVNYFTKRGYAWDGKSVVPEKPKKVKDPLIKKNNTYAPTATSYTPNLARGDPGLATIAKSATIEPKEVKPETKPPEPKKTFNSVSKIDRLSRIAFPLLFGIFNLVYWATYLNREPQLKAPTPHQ
T2 sequence (P47870 25-512 limits assumed): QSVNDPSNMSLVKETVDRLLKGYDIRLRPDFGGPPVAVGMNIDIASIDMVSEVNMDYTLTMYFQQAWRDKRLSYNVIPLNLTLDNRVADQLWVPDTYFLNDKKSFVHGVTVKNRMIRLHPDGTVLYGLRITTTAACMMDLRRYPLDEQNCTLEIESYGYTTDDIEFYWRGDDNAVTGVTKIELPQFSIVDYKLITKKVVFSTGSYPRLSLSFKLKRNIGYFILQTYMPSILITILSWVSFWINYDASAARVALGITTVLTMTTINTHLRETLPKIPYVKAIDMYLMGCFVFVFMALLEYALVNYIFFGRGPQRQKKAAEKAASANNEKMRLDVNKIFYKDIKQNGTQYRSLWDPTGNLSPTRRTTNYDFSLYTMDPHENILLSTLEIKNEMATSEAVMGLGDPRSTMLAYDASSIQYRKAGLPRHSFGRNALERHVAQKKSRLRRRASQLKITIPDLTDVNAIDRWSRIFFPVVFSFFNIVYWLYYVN
T2 sequence (P18507 40-475 partner): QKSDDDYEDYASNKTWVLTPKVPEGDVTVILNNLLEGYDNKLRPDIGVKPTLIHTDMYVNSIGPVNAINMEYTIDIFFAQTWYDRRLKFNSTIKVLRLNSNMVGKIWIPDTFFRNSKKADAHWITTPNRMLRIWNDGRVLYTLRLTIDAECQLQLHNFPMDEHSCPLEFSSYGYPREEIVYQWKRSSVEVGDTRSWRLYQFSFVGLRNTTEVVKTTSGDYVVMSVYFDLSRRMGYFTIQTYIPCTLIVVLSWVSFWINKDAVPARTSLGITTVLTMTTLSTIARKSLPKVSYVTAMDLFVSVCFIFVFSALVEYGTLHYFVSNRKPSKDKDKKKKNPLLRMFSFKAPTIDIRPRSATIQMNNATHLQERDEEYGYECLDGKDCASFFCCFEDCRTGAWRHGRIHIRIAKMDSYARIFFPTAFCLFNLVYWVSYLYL
Excerpt: For this purpose we chose the major GABAA receptor subtype in the brain, α1β2γ2, and used the FMP assay for functional assessment as previously reported ([Falk-Petersen et al., 2020]). This assay detects changes in membrane potential for an average cell population through changes in fluorescence of a membrane pre-equilibrated fluorescent blue dye. It therefore provides an indirect measure of activity with the advantage of being able to discern between GAT substrates and inhibitors ([Kragholm et al., 2013]; [Al-Khawaja et al., 2014]; [Kickinger et al., 2020]).
The tsA201 cell line (a transformed HEK293 cell line), the Flp-In CHO cell lines stably expressing human (h) GATs and the HEK293 cell line stably expressing human α1β2γ2 GABAA receptors have been described previously and were cultured accordingly ([Al-Khawaja et al., 2014]; [Falk-Petersen et al., 2020]). […]
The FMP assay performed on human α1β2γ2 GABAA receptors in HEK293 cells was performed as described and data analyzed accordingly ([Falk-Petersen et al., 2020]). […] Test compound solutions were prepared at 4x concentration in assay buffer and added to ligand plates pre-heated at 37°C for 10–15 min in the FLEXstation3 plate reader (Molecular Devices). After incubation, 33.3 µL test compound solution (4x) was automatically transferred to each well in the cell plate and the signal was measured for 90 s by measuring emission at 560 nm caused by excitation at 530 nm. […] Data obtained in the FMP assay are given as relative changes in fluorescence units (ΔRFU) by subtracting the average of the baseline fluorescence signal from the peak fluorescence signal after compound addition. […] A Gaddum-Schild plot was performed according to the equation: log(dr-1) = log(B)+pA2, where B is the concentration of the inhibitor, pA2 is the negative logarithm of the dissociation constant KB, and the dose-ratio dr is equal to the EC′50/EC50, where EC′50 and EC50 are determined in the presence and absence of the different inhibitor concentrations, respectively. […]

Inhibitor activity (BGT1) | Substrate activity (translocation by BGT1) (BGT1) | Kb (BGT1; n = 4, read-out: KB) | Kb (BGT1; read-out: pKB (converted)) | Preference for BGT1 over α1β2γ2 GABAA receptors (BGT1; according to the FMP data) | Schild slope (Gaddum-Schild analysis) (BGT1; co-applied with increasing concentrations of GABA, n = 4) | EC50 ([1]; agonist activity, HEK293 cells) | SMILES | Activity at α1β2γ2 GABAA receptors [1]
behaved as inhibitors | no increase in fluorescence signals |  |  |  |  |  | CN[C@@]12CC[C@H](C(=O)O)[C@@H]1C2 [compound 2] | completely devoid of activity; also recorded: inactive
behaved as inhibitors | no increase in fluorescence signals | 470 nM | 398 nM | 13 times | 1.02 | 5100 nM | N[C@@]12CC[C@H](C(=O)O)[C@@H]1C2 [bicyclo-GABA, (1S,2S,5R)-5-aminobicyclo[3.1.0]hexane-2-carboxylic acid] | low micromolar agonistic activity

Reference: publication PMC8476755 (Frontiers in Chemistry, 2021)
